Results on one molecule are retold here after article PMC2746281 (PLoS ONE, 2009).

A value given as a limit tells only on which side of the number the result lay.

The test system of data set [1] is Ba/F3 cells. Description: IL-3-stimulated proliferation of Ba/F3 cells expressing human wild-type KIT. The following applies: Mus musculus, BaF3, read-out: IC50 for inhibition of IL-3-stimulated proliferation. The format is cell-based. The protocol: Cells were grown for 48 hours at 37°C and then incubated with 10 µl/well of WST-1 reagent (Roche Applied Science, France) for 3 hours at 37°C. The amount of formazan dye formed was quantified by its absorbance at 450 nm using a scanning multiwell spectrophotometer (MultiSkan MS, Thermo-LabSystems, France). A blank well without cells was used as a background control for the spectrophotometer and all assays were performed in triplicate.

Data set [2] concerns the target T1, KIT Δ27 (murine) (Mus musculus, UniProt P05532, DEL551-559).
T1 construct: expressed in transfected cells; host or cells: Ba/F3
Nature of the data set: Ba/F3 cell proliferation (WST-1), KIT Δ27. The following applies: Ba/F3 cells expressing the enzyme, read-out: Cell-based assay IC50, KIT Δ27 (murine).

Data set [3] relates to murine bone marrow mast cell (BMMC). Nature of the data set: Transwell migration of BMMC in response to rmSCF. The format is cell-based. The following applies: Mus musculus, 4 hours, read-out: inhibition of migration of SCF-stimulated BMMCs relative to the control.
Description: Migration of murine BMMCs was evaluated using a transwell migration assay [35]. […] Filters were then placed in wells containing 600 µL of chemotaxis buffer supplemented with or without 10 ng/mL of rmSCF, for stimulated or unstimulated BMMCs, respectively. After 4 hours incubation at 37°C in 5% CO2, cells from the bottom chamber were resuspended and counted using a FACS Scan over 20 seconds. All assays were performed in triplicate and counts were repeated twice for each well. For tyrosine kinase inhibitor treatment, 1×10^7 mast cells were pretreated for 1.5 hours at 37°C in complete medium (OPTI MEM, 10% foetal calf serum (FCS), 1% antibiotics and 2-mercaptoethanol 5×10^−5 M, 10 ng/ml rIL3) either with 1 µM of inhibitor or an equivalent volume of DMSO.
Data set [4] addresses T2, Alk (Homo sapiens, UniProt Q9UM73).
T2 construct: expressed in transfected cells; host or cells: Ba/F3
Nature of the data set: Ba/F3 cell proliferation (WST-1), Alk. The following applies: Ba/F3 cells expressing the enzyme, read-out: Cell-based assay IC50, Alk. A general note: Tetrazolium dyes change colour on reduction, which living cells bring about.

In data set [5] the test system is CBMC. Description: CBMC cell viability. The format is cell-based, human. The following applies: incubation of CBMC for up to 9 hours.
The subject of data set [6] is primary BMMCs from mice expressing wild-type KIT. Description: SCF-stimulated proliferation and KIT tyrosine phosphorylation in primary BMMCs. The format is cell-based. The following applies: Mus musculus, BMMC, primary murine BMMCs, read-out: IC50, SCF-stimulated cell proliferation and tyrosine phosphorylation of KIT in BMMCs. The protocol:
(B) western blotting analysis of HMC-1α155 tyrosine phosphorylation. […] (D) Western blotting analysis of BMMC tyrosine phosphorylation. Cell proliferation was assessed by WST-1 colorimetric assay. […] MW = molecular weight.

Data set [7] deals with T3, c-Fms (Homo sapiens, UniProt P07333).
T3 construct: expressed in transfected cells; host or cells: Ba/F3 (general description; not repeated for this kinase)
Description: Ba/F3 cell proliferation (WST-1), c-Fms. The settings on record: Ba/F3 cells expressing the enzyme, read-out: Cell-based assay IC50, c-Fms.

The test system of data set [8] is cultured human lymphocytes. Nature of the data set: Chromosome aberration test in cultured human lymphocytes. The format is cell-based. The settings on record: our unpublished results.
Data set [9] deals with mouse lymphoma. Description: Mouse lymphoma assay. The format is cell-based. The settings on record: our unpublished results.
The target of data set [10] is T4, Hck (Homo sapiens, UniProt P08631).
T4 construct: Hck (2-526; BC014435); 6xHN (N); made in house; host or cells: baculovirus, Sf9 insect cells
Nature of the data set: Recombinant kinase ELISA assay, Hck. The format is biochemical. The settings on record: recombinant human enzyme; ELISA-based assay, poly(Glu,Tyr 4:1) substrate. As to the method: (§1) Full details for the generation of recombinant human KIT intracellular domain and other protein kinases (including Lyn, platelet derived growth factor receptor β, epidermal growth factor receptor, fibroblast growth factor receptor 1, Src, HCK, PYK, FES, Btk, Bmx, c-Ret, c-Fms, Syk, and c-Met) are provided in the Supplemental Methods (see Supporting Information; Methods S1). Experiments on ABL1, Akt1, protein kinase C-α, insulin-like growth factor receptor 1, and Pim1 were carried out by Proqinase (Germany). All other recombinant protein kinases were performed in-house using an enzyme-linked immunoassay; experimental details are provided in the Supplemental Methods (see Supporting Information; Methods S1).
(§2) The sequences encoding PDGF receptor β (residues 554–1106; GenBank accession no. BC032224), Lyn B (2–583; accession no. BC059394), fibroblast growth factor receptor 1 (572–959; accession no. BC018128), Src (2–536; accession no. BC011566), Btk (2–659; accession no. BC109079), Bmx (2–675; accession no. BC016652), c-Ret (713–1114; accession no. BC004257), c-Fms (538–972; BC047531), Syk (2–612; BC011399), Hck (2-526; accession no. BC014435), Fes (2-822; accession no. BC035357), PYK2 (2-1006; accession no. BC042599) and c-Met (949–1398; accession no. lifeseq3489592) were amplified by PCR from IMAGE cDNA clones purchased from Openbiosystems. […]

For data set [11], the target named is T5, Bmx (Homo sapiens, UniProt P51813).
T5 construct: Bmx (2–675; BC016652); 6xHN (N); made in house; host or cells: baculovirus, Sf9 insect cells
Description: Recombinant kinase ELISA assay, Bmx. The format is biochemical. The settings on record: recombinant human enzyme; ELISA-based assay, poly(Glu,Tyr 4:1) substrate. As to the method: as §1, §2
Background: ELISA stands for enzyme-linked immunosorbent assay.

Data set [12] deals with TrkB (Homo sapiens, UniProt Q16620). The following applies: read-out: Cell-based assay IC50, TrkB; Ba/F3 cells expressing the enzyme; cell proliferation, WST-1.
Data set [13] concerns the target VEGFR1 (Homo sapiens, UniProt P17948). Description: Recombinant kinase ELISA assay, VEGFR1. The format is biochemical. The settings on record: recombinant human enzyme; ELISA-based assay, poly(Glu,Tyr 4:1) substrate. The protocol:
as §1
(§3) A 96-well microtitre plate (Immulon 2HB; ThermoLifeScience, Finland) was coated overnight with 0.25 mg/ml poly(Glu,Tyr 4:1), rinsed twice with 250 µl of washing buffer (10 mM phosphate-buffered saline [pH 7.4] and 0.05% Tween 20) and dried for 2 hours at room temperature. […] Reactions were initiated upon introduction of the enzyme and terminated with the addition of one reaction volume (50 μl) of 100 mM EDTA per 5 M urea mix. […] The final reaction product was quantified by spectrophotometry at 450 nm.

The target in data set [14] is T6, Tyk2 (Homo sapiens, UniProt P29597).
T6 construct: expressed in transfected cells; host or cells: Ba/F3
Nature of the data set: Ba/F3 cell proliferation (WST-1), Tyk2. The following applies: Ba/F3 cells expressing the enzyme, read-out: Cell-based assay IC50, Tyk2.

Data set [15] concerns the target Fibroblast growth factor receptor 3 (Homo sapiens, UniProt P22607). Nature of the data set: Recombinant kinase ELISA assay, FGFR3. The format is biochemical. The settings on record: recombinant human enzyme; ELISA-based assay, poly(Glu,Tyr 4:1) substrate. As to the method: as §1, §3

TrkB, sequence (Q16620 32-822, species assumed): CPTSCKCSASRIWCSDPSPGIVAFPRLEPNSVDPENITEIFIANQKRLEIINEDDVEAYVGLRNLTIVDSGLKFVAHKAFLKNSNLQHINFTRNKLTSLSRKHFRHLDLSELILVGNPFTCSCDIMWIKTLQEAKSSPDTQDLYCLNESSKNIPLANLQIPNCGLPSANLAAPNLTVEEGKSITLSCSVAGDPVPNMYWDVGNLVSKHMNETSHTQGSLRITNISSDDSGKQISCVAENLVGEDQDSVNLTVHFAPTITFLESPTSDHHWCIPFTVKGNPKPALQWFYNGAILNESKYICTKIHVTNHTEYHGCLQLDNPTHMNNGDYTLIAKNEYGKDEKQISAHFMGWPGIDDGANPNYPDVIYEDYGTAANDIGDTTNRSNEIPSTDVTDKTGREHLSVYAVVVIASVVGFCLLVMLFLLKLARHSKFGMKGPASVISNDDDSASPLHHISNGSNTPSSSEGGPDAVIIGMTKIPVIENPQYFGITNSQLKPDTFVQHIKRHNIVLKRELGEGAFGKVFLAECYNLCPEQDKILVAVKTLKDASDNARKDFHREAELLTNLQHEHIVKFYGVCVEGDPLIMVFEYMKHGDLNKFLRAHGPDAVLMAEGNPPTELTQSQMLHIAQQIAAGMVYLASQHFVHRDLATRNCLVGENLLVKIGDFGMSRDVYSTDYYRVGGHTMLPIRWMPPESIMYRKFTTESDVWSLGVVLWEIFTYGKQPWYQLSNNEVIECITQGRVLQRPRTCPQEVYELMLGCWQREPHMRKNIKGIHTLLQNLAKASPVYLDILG
T6 sequence (P29597 whole entry, species assumed): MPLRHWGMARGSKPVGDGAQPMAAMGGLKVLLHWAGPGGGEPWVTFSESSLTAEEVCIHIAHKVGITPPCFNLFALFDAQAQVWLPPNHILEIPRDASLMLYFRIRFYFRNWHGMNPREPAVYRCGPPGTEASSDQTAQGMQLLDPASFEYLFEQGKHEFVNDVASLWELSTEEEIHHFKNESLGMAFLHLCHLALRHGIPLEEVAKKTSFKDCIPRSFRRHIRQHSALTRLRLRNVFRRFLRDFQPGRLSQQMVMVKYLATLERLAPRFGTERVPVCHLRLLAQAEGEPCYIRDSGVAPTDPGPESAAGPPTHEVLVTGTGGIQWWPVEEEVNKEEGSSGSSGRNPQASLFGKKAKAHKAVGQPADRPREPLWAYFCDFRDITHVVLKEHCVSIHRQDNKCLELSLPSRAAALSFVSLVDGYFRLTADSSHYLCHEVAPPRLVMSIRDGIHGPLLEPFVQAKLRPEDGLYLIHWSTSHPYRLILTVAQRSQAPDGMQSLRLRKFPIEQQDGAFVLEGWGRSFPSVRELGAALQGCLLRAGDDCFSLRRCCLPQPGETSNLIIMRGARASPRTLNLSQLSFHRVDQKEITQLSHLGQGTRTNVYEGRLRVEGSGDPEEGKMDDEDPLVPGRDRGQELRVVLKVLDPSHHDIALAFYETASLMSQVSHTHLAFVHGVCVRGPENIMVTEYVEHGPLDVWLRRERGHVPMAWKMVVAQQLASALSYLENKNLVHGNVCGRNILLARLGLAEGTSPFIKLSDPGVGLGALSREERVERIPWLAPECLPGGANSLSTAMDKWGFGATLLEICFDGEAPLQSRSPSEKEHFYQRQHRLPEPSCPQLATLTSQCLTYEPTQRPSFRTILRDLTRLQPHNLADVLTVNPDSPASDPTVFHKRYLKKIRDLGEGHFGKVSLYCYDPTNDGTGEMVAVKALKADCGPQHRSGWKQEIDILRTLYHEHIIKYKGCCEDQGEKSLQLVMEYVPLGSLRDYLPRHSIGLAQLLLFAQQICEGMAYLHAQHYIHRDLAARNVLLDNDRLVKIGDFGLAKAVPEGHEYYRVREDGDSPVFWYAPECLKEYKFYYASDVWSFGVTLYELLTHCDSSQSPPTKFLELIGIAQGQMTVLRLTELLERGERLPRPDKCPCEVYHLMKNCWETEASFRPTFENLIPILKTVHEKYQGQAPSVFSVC
T2 sequence (Q9UM73 19-1620, species assumed): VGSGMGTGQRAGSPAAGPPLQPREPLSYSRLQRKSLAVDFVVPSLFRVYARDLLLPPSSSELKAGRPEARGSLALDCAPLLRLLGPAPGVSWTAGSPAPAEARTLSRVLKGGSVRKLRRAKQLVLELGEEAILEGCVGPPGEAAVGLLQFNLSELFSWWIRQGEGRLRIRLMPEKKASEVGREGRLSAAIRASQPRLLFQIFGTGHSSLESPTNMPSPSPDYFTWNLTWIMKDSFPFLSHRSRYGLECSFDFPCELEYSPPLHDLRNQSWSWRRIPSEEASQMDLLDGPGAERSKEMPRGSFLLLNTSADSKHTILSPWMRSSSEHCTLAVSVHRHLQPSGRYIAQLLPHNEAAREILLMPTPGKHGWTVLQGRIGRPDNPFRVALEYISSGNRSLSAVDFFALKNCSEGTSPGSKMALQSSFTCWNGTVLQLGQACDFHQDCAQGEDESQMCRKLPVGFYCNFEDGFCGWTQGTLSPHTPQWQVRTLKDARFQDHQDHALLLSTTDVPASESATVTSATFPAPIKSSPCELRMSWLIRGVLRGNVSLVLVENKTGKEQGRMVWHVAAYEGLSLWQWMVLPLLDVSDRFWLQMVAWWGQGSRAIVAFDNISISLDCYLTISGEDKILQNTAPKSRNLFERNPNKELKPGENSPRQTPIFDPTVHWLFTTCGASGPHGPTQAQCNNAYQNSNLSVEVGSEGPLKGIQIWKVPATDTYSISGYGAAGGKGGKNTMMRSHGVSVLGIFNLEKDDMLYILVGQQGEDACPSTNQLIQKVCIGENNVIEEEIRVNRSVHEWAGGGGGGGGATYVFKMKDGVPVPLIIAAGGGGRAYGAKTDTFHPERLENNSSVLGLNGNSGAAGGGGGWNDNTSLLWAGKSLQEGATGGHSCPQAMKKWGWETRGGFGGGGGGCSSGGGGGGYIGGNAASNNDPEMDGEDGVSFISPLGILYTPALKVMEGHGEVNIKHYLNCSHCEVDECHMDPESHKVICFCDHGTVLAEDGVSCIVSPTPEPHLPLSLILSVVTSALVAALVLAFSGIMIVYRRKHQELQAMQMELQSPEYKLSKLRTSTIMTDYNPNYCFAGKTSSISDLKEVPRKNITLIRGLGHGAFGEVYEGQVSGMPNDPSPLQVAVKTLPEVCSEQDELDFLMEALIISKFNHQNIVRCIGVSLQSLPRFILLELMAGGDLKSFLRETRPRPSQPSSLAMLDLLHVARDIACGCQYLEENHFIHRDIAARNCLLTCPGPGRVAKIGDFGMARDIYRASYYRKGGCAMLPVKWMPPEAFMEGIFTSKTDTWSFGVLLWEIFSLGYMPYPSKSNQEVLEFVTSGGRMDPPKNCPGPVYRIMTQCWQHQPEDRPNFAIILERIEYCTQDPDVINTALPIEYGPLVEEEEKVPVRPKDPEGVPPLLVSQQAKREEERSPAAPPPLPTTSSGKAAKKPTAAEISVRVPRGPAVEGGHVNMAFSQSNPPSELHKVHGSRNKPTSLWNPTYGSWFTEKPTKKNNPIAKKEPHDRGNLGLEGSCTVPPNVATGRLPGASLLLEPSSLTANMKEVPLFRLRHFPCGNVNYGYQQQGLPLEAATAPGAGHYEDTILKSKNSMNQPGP
T3 sequence (P07333 20-972): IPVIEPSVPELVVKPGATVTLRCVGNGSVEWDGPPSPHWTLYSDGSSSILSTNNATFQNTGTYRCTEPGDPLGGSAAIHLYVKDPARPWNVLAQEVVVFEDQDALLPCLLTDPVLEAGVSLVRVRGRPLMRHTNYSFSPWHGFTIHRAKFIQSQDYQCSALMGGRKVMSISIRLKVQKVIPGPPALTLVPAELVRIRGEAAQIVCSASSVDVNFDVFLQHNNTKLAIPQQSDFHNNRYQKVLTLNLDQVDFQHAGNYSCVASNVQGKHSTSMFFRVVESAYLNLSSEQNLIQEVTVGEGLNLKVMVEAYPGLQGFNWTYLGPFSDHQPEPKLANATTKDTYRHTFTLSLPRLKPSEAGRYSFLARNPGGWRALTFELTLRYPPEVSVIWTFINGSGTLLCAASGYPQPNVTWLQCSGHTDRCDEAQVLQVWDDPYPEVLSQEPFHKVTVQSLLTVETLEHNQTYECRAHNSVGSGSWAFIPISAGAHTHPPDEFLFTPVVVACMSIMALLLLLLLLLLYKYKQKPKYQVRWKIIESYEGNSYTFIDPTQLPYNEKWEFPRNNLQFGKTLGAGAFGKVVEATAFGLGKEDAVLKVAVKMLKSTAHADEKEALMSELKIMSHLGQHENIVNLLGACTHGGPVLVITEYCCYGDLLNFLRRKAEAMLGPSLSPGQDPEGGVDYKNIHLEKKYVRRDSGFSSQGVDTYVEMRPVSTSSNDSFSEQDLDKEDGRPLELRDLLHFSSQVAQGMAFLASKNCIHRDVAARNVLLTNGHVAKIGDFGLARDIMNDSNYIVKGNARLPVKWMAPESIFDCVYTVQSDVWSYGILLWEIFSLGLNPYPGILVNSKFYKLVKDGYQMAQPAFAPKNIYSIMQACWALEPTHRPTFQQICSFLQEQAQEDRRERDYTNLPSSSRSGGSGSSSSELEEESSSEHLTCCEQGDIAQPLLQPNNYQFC
T4 sequence (P08631 23-526 limits assumed): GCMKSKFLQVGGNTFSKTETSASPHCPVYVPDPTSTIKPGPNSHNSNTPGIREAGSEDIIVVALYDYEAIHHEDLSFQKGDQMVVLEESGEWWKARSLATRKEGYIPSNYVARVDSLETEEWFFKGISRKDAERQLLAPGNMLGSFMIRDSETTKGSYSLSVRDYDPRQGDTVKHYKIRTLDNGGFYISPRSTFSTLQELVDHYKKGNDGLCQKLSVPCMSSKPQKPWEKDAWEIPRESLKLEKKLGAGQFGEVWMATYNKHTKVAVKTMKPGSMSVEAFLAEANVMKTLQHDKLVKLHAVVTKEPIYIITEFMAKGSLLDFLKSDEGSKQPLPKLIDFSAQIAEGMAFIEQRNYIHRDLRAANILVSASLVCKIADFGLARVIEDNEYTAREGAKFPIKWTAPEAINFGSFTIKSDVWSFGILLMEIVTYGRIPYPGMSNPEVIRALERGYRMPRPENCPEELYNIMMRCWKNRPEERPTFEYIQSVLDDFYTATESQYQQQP

`CS(=O)(=O)O.CS(=O)(=O)O.Cc1ccc(NC(=O)c2ccc(CN3CCN(C)CC3)cc2)cc1Nc1nc(-c2cccnc2)cs1` [masitinib, 4-(4-methylpiperazin-1-ylmethyl)-N-[4-methyl-3-(4-pyridin-3ylthiazol-2-ylamino)phenyl]benzamide-mesylate methane sulfonic acid salt]: the IC50 in data set [1] was over 5 µM; in data set [2], 0.005 ± 0.0003 µM; in [4], 9 ± 0.18 µM; in data set [6], 0.2 ± 0.05 µM; in [7] it was 1 ± 0.03 µM; in data set [10], 2 ± 0.2 µM. Moreover, the IC50 was over 10 µM in [11]; 7 ± 1.9 µM in [12]; over 10 µM in [13]; 9 ± 0.8 µM in [14]; over 10 µM in data set [15]. In addition, the inhibition at 1 µM in data set [3] was about 79.6%. Besides, the “effect on cell viability” value in data set [5] was “no affect on cell viability”. The chromosome aberrations entry in data set [8] was “does not cause chromosome aberrations”. Further, in [9], the “mutagenicity in a mouse lymphoma assay” value is “not mutagenic”.
